Measurements reported in patent US7993855B2, “Use of additives to lower the rate of a binding reaction” (Aokin AG, priority 2006, dated 2011).
Where a name gives a salt, the structure may show the parent alone.

Columns and labels:
anti-thyroxine [1] = test: Fluorescence polarization kinetic assay, F-thyroxine/anti-thyroxine system; type: binding; settings: PBS with 4.75% 2-propanol, BSA 0.1 μM, Anti-Thyroxine 1:300
anti-thyroxine [2] = test: as above; type: binding; settings: for Rate of the antibody reaction with increasing concentrations of additive: PBS with 5% 2-propanol, BSA 0.1 μM, Fluorescein-Thyroxine 1 nM, Anti-Thyroxine 1:300
Experimental: An initial stock solution of anti-thyroxine sera was prepared. In particular, 1 ml of polyclonal anti-thyroxine sera containing 10 mg/ml IgG (Sigma) was diluted 1:5 in PBS buffer, pH 7.5. The final concentration of IgG in the stock solution was about 2 mg/ml.
An initial stock solution of fluorescein-labeled analyte (F-thyroxine) was prepared. […] First, 5 mg (4×10^−6 moles) of F-thyroxine was diluted to 10 ml in PBS to get a 4.1×10^−4 M solution of F-thyroxine. This solution was then further diluted 100-fold in PBS. The final concentration of F-thyroxine in the stock solution was about 4.1×10^−6 M.
All steps are performed at ambient temperature. The total final reaction volume after all additions is 3030 μl. • 1. Add 20 μl or 0 μl (control) anti-sera stock solution to about 2980 μl of Buffer 1. • 2. Pipette the diluted anti-sera solution prepared in step 1 up and down from 1 to 10 seconds to thoroughly mix. • 3. Add between 0 and 20 μl thyroxine stock solution (e.g., 0, 0.5, 2.0, 5.0 and 20 μl) to the mixed anti-sera from step 2. • 4. Pipette the mixture formed in step 3 up and down for 1 to 10 seconds and then incubate for 30 to 300 seconds. • 5. Add 10 μl of the Fluorescein-labeled thyroxine stock solution to the incubated mixture from step 4. • 6. Pipette the mixture formed in step 5 up and down for 1 to 10 seconds and begin measuring polarization (P), Polarized Fluorescence Intensity Difference (V−H) or quenching (V+H total intensity) versus time for between 10 and 7200 seconds after end of mixing in a direct readout polarometer or between 0.1 and 7200 seconds after end of mixing with a stopped-flow polarometer. • 7. Determine the rate of reaction (initial rates) and plot versus amount of thyroxine stock solution added in step 3 to produce a standard curve. • 8. Against a standard curve, an unknown amount of thyroxine can be measured by comparison of initial rate measurement (speed of reaction) of unknown with the standard curve. […]

human sera = test: Non-specific binding of F-thyroxine in presence of human sera; settings: Buffer 2 (1.0 M sodium benzoate), 50 μl human sera, V−H over 10-600 s
Experimental: With reference to FIG. 2, experiments were performed to determine the effects of an additive on specific and non-specific binding. The additive used in the present example was sodium benzoate. The materials described in Example 1 and the measurement methodology described in Example 2 were used. In particular, 50 μl of human sera was added to 3000 μl of Buffer 2 or PBS at pH 7.5 (no additive control) and thoroughly mixed by pipetting for 1 to 10 seconds. To this was added 0 μl of unlabeled thyroxine and 0 μl, 20 μl or 50 μl of anti-sera stock solution. The mixture was thoroughly mixed by pipetting for 1 to 10 seconds. Then, 5 μl of the fluorescein-labeled thyroxine stock solution was added. This was followed by mixing for 1 to 10 seconds by pipetting. Then, d(V−H)/dt measurements were made versus time for between 10 and 600 seconds. This protocol was followed for Experiments 6-9 in Table 2.

anti-thyroxine [3] = test: Fluorescence polarization kinetic assay, rhodamine-labeled thyroxine (ROX-T4)/anti-thyroxine system; type: binding; settings: Rox-Thyroxine 1.5 nM, Anti-Thyroxine 1:300, PBS with 10% 2-propanol, serum 1:500
Experimental: The protocol used is described below. […] Use clean glassware, washed with isopropanol. • 2. Make a 0.5 M solution of sodium benzoate. • 3. […] This will be named BUFFER. • 4. […] The absorbance spectrum is measured using a UV-VIS spectrophotometer, 400 nm to 800 nm. This spectrum is used to define the absorbance of the background as zero and to control that it is actually zero. • 6. […] Measure the absorbance UV-VIS, 400 nm to 800 nm. […] Using a rotating polarometer with a 75 watt Xenon short-arc lamp. The rotating polarizer has three channels: Polarization (P), Total Intensity (V+H), and V−H. • 8. […] Measure P, V+H and V−H after short mixing and 30 second equilibration. […] Add 10 μl. Antibody solution (anti-thyroxine in PBS, dilution unknown, probably 5 mg in 1000 μl PBS and further diluted 1:10 in PBS). New volume is 3017 μl. Measure P, V+H and V−H after short mixing.

serum components = test: Initial non-specific binding between F-thyroxine and serum components (P at t=0); settings: experiments 6-3 through 6-7: serum, increasing sodium benzoate; PBS with 10% 2-propanol
Experimental: The buffer and stock solutions described in Example 1 and the measurement methodology described in Example 2 were used.
• Fluorescein-Thyroxine (1 nM) • Anti-Thyroxine (1:300 dilution) • PBS with 10% 2-propanol • Benzoate in different concentrations • At t=0 s antibody was pipetted into the cuvette. • A 3 ml cuvette was used, the total volume in the cuvette was 2 ml. A small magnetic stirrer was used for mixing
In example 6, the reactions between F-Thyroxine and Anti-Thyroxine, which were carried out in the presence of serum under different reaction conditions, are compared (FIG. 4). There are seven different amounts of sodium benzoate, between 0 and 1.0 Molar in the cuvette. The reaction was performed in a phosphate buffered saline buffer containing 10% 2-propanol. The table in FIG. 4 lists the two important parameters.

O=C1CCC(=O)N1O [N-hydroxysuccinimide]
Rate of the antibody reaction with increasing concentrations of additive (anti-thyroxine [1]; Fluorescein-Thyroxine 1.5 nM): substantially slowed

N=C(N)N [guanidine hydrochloride]
Rate of the antibody reaction with increasing concentrations of additive (anti-thyroxine [2]): substantially slowed

O=C([O-])c1ccccc1.[K+] [potassium benzoate]
Rate of the antibody reaction with increasing concentrations of additive (anti-thyroxine [1]; Fluorescein-Thyroxine 1 nM): substantially slowed

O=C([O-])c1ccccc1.[Na+] [sodium benzoate]
Effect of additive on non-specific binding (human sera): inhibits non-specific binding
Rate of the reaction with increasing concentrations of additive (anti-thyroxine [3]): substantially slowed
Polarization value before addition of antibody (t=0) (serum components): 100 mP
Reaction between F-thyroxine and its specific antibody capable of being followed (kinetic curve) (anti-thyroxine [2]; Buffer 1 (0.5 M sodium benzoate in PBS, pH 7.5) versus PBS): only capable of being followed when the reaction was performed in the presence of an additive
Effect of additive on specific binding (anti-thyroxine [2]; Buffer 2 (1.0 M sodium benzoate), 50 μl human sera, 0/20/50 μl antiserum, V−H over 10-600 s): does not inhibit specific binding
Rate of the antibody reaction with increasing concentrations of additive (anti-thyroxine [2]): substantially slowed
Reaction rate relative to its value from zero additive agent (anti-thyroxine [2]; experiments 6-3 through 6-7: serum, increasing sodium benzoate, PBS with 10% 2-propanol): about 30%

[Cl-].[Na+] [sodium chloride]
Rate of the antibody reaction with increasing concentrations of additive (anti-thyroxine [1]; Fluorescein-Thyroxine 1.5 nM): not substantially slowed

O=C([O-])CCl.[Na+] [sodium chloroacetate]
Rate of the antibody reaction with increasing concentrations of additive (anti-thyroxine [1]; Fluorescein-Thyroxine 1 nM): substantially slowed

O=C([O-])C(Cl)Cl.[Na+] [sodium dichloroacetate]
Rate of the antibody reaction with increasing concentrations of additive (anti-thyroxine [1]; Fluorescein-Thyroxine 1 nM): substantially slowed

Cc1ccc(S(=O)(=O)O)cc1.[Na] [sodium p-tolulene sulfonate, sodium p-toluene sulfonate]
Rate of the antibody reaction with increasing concentrations of additive (anti-thyroxine [2]): substantially slowed
